From article PMC11876601 (Molecular Systems Biology, 2025)
Where two headings read alike, the source gives them in different places.

Assays:
Test in all cases: cells
AsPC-1 [1] = system: AsPC-1; set-up: ATPlite luminescence viability of PDAC cell lines, 11-dose single-agent curves, 4-parameter fit; conditions: Homo sapiens, ASPC1, 72 h, read-out: EC50 [nM]
Summary of the method: (§1)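 Drug-combination screening used cells plated at 1000 to 5000 per well one day before treatment. Final DMSO was 0.2%. Each plate held untreated negative-control wells and 5 µM staurosporine positive-control wells.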

BxPC-3 [2] = system: BxPC-3; set-up: ATPlite luminescence viability of PDAC cell lines, 11-dose single-agent curves, 4-parameter fit; conditions: Homo sapiens, BXPC-3, 72 h, read-out: EC50 [nM]
Summary of the method: as §1

Capan-1 [3] = system: Capan-1; set-up: ATPlite luminescence viability of PDAC cell lines, 11-dose single-agent curves, 4-parameter fit; conditions: Homo sapiens, CAPAN-1, 72 h, read-out: EC50 [nM]
Summary of the method: as §1

Colo-357 [4] = system: Colo-357; set-up: ATPlite luminescence viability of PDAC cell lines, 11-dose single-agent curves, 4-parameter fit; conditions: Homo sapiens, COLO357, 72 h, read-out: EC50 [nM]
Summary of the method: as §1

Dan-G [5] = system: Dan-G; set-up: ATPlite luminescence viability of PDAC cell lines, 11-dose single-agent curves, 4-parameter fit; conditions: 72 h, read-out: EC50 [nM]
Summary of the method: as §1

FAMPAC = system: FAMPAC; set-up: ATPlite luminescence viability of PDAC cell lines, 11-dose single-agent curves, 4-parameter fit; conditions: 72 h, read-out: EC50 [nM]
Summary of the method: as §1

MiaPaCa-2 = system: MiaPaCa-2; set-up: ATPlite luminescence viability of PDAC cell lines, 11-dose single-agent curves, 4-parameter fit; conditions: Homo sapiens, MIA PaCa-2, 72 h, read-out: EC50 [nM]
Summary of the method: as §1

PANC-1 [6] = system: PANC-1; set-up: ATPlite luminescence viability of PDAC cell lines, 11-dose single-agent curves, 4-parameter fit; conditions: Homo sapiens, PANC-1, 72 h, read-out: EC50 [nM]
Summary of the method: as §1

PSN-1 = system: PSN-1; set-up: ATPlite luminescence viability of PDAC cell lines, 11-dose single-agent curves, 4-parameter fit; conditions: Homo sapiens, PSN1, 72 h, read-out: EC50 [nM]
Summary of the method: as §1

PaTu-8988-T [7] = system: PaTu-8988-T; set-up: ATPlite luminescence viability of PDAC cell lines, 11-dose single-agent curves, 4-parameter fit; conditions: Homo sapiens, PaTu 8988t, 72 h, read-out: EC50 [nM]
Summary of the method: as §1

Suit2-07 = system: Suit2-07; set-up: ATPlite luminescence viability of PDAC cell lines, 11-dose single-agent curves, 4-parameter fit; conditions: 72 h, read-out: EC50 [nM]
Summary of the method: as §1

HPDE [8] = system: HPDE; set-up: Viability of PDAC cell lines, ATPlite luminescence, 11-dose single-agent curve fit; conditions: HPDE, 72 h, read-out: EC50 [nM]
Summary of the method: (§2)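 screening used cells plated at 1000 to 5000 per well one day before treatment. Final DMSO was 0.2%. Each plate held untreated negative-control wells and 5 µM staurosporine positive-control wells.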

HuP-T4 [9] = system: HuP-T4; set-up: Viability of PDAC cell lines, ATPlite luminescence, 11-dose single-agent curve fit; conditions: Homo sapiens, HuP-T4, 72 h, read-out: EC50 [nM]
Summary of the method: as §2

HPDE [10] = system: HPDE; set-up: ATPlite luminescence viability of PDAC cell lines, 11-dose single-agent curves, 4-parameter fit; conditions: HPDE, 72 h, read-out: EC50 [nM]
Summary of the method: as §1

AsPC-1 [11] = system: AsPC-1; set-up: Viability of PDAC cell lines, ATPlite luminescence, 11-dose single-agent curve fit; conditions: Homo sapiens, ASPC1, 72 h, read-out: EC50 [nM]
Summary of the method: as §2

BxPC-3 [12] = system: BxPC-3; set-up: Viability of PDAC cell lines, ATPlite luminescence, 11-dose single-agent curve fit; conditions: Homo sapiens, BXPC-3, 72 h, read-out: EC50 [nM]
Summary of the method: as §2

Capan-1 [13] = system: Capan-1; set-up: Viability of PDAC cell lines, ATPlite luminescence, 11-dose single-agent curve fit; conditions: Homo sapiens, CAPAN-1, 72 h, read-out: EC50 [nM]
Summary of the method: as §2

Dan-G [14] = system: Dan-G; set-up: Viability of PDAC cell lines, ATPlite luminescence, 11-dose single-agent curve fit; conditions: 72 h, read-out: EC50 [nM]
Summary of the method: as §2

PaTu-8988-T [15] = system: PaTu-8988-T; set-up: Viability of PDAC cell lines, ATPlite luminescence, 11-dose single-agent curve fit; conditions: Homo sapiens, PaTu 8988t, 72 h, read-out: EC50 [nM]
Summary of the method: as §2

HuP-T4 [16] = system: HuP-T4; set-up: ATPlite luminescence viability of PDAC cell lines, 11-dose single-agent curves, 4-parameter fit; conditions: Homo sapiens, HuP-T4, 72 h, read-out: EC50 [nM]
Summary of the method: as §1

Colo-357 [17] = system: Colo-357; set-up: Viability of PDAC cell lines, ATPlite luminescence, 11-dose single-agent curve fit; conditions: Homo sapiens, COLO357, 72 h, read-out: EC50 [nM]
Summary of the method: as §2

PANC-1 [18] = system: PANC-1; set-up: Viability of PDAC cell lines, ATPlite luminescence, 11-dose single-agent curve fit; conditions: Homo sapiens, PANC-1, 72 h, read-out: EC50 [nM]
Summary of the method: as §2

| SMILES | EC50 (AsPC-1 [1]) | EC50 (BxPC-3 [2]) | EC50 (Capan-1 [3]) | EC50 (Colo-357 [4]) | EC50 (Dan-G [5]) | EC50 (FAMPAC) | EC50 (MiaPaCa-2) | EC50 (PANC-1 [6]) | EC50 (PSN-1) | EC50 (PaTu-8988-T [7]) | EC50 (Suit2-07) | EC50 (HPDE [8]) | EC50 (HuP-T4 [9]) | EC50 (HPDE [10]) | further results |
| --- | --- | --- | --- | --- | --- | --- | --- | --- | --- | --- | --- | --- | --- | --- | --- |
| COc1cc(OC)c(/C=C/S(=O)(=O)Cc2ccc(OC)c(NCC(=O)O)c2)c(OC)c1 [Rigosertib] | 863 nM | 63.2 nM | 178 nM | 256 nM | 66 nM | 28.2 nM | 324 nM | 313 nM | 86.5 nM | 607 nM | 2170 nM | 48.2 nM | 809 nM | – | – |
| CCCCCCCCCCCCCCCCCCOP(=O)([O-])OC1CC[N+](C)(C)CC1 [Perifosine] | – | – | – | > 10000 nM | – | 3030 nM | 2990 nM | 2590 nM | 2340 nM | – | 2140 nM | – | 0.04 nM | 1280 nM | EC50 (AsPC-1 [11]): > 10000 nM; EC50 (BxPC-3 [12]): 1410 nM; EC50 (Capan-1 [13]): > 10000 nM; EC50 (Dan-G [14]): > 10000 nM; EC50 (PaTu-8988-T [15]): 9320 nM |
| CO[C@@H]1[C@H](N(C)C(=O)c2ccccc2)C[C@H]2O[C@]1(C)n1c3ccccc3c3c4c(c5c6ccccc6n2c5c31)C(=O)NC4 [Midostaurin] | – | – | – | – | – | – | – | – | – | 385 nM | – | 221 nM | – | – | EC50 (HuP-T4 [16]): 692 nM |
| COc1cc2c(Oc3ccc4[nH]c(C)cc4c3F)ccnc2cc1OCC1(N)CC1 [Anlotinib] | 3160 nM | 1520 nM | 2440 nM | 2350 nM | 1850 nM | 1580 nM | 1720 nM | 1960 nM | 1920 nM | 1520 nM | 1270 nM | – | > 10000 nM | 6100 nM | – |
| CC1(C)CC=C(c2nc(C3CC(C)(C)OC(C)(C)C3)ccc2NC(=O)c2nc(C#N)c[nH]2)CC1 [Edicotinib] | 2570 nM | 1960 nM | 3970 nM | 4490 nM | 3250 nM | 2850 nM | 3040 nM | 3070 nM | 2160 nM | 2070 nM | 2380 nM | – | 1370 nM | 2070 nM | – |
| CNC(=O)c1cc(Oc2ccc(NC(=O)Nc3ccc(Cl)c(C(F)(F)F)c3)cc2)ccn1 [Sorafenib] | – | 10200 nM | 8320 nM | – | 7810 nM | > 10000 nM | > 10000 nM | – | 3820 nM | > 10000 nM | 9770 nM | – | 10200 nM | 7960 nM | EC50 (AsPC-1 [11]): > 10000 nM; EC50 (Colo-357 [17]): 4370 nM; EC50 (PANC-1 [18]): 7780 nM |
| COc1cc2c(Oc3ccc4[nH]c(C)cc4c3F)ncnc2cc1OCCCN1CCCC1 [Cediranib] | 7780 nM | 7970 nM | – | 10300 nM | 6330 nM | > 10000 nM | 10100 nM | – | > 10000 nM | 6380 nM | > 10000 nM | 4910 nM | – | – | EC50 (HuP-T4 [16]): 8450 nM; EC50 (Capan-1 [13]): 8290 nM; EC50 (PANC-1 [18]): 7310 nM |
